Test: xn = mol fraction of the nth substance listed
Details: 100 kPa, Liquid

CC[NH+]=C(N(C)C)N(C)C.O=S(=O)([N-]S(=O)(=O)C(F)(F)F)C(F)(F)F + CCCO
Details | mass density [kg/m3] | viscosity [mPa·s]
293.15 K, x1 = 0.1024 | 997.39 | 4.462
293.15 K, x1 = 0.2019 | 1114.71 | 7.27
293.15 K, x1 = 0.2973 | 1192.09 | 10.87
293.15 K, x1 = 0.4011 | 1252.75 | 16.1
293.15 K, x1 = 0.4988 | 1295.36 | 21.63
293.15 K, x1 = 0.5962 | 1328.36 | 28.19
293.15 K, x1 = 0.6997 | 1356.59 | 36.71
293.15 K, x1 = 0.7931 | 1377.81 | 45.87
293.15 K, x1 = 0.9014 | 1398.72 | 58.37
293.15 K, x1 = 1 | 1414.89 | 74.61
298.15 K, x1 = 0.1024 | 992.96 | 3.868
298.15 K, x1 = 0.2019 | 1110.07 | 6.213
298.15 K, x1 = 0.2973 | 1187.4 | 9.224
298.15 K, x1 = 0.4011 | 1247.97 | 13.49
298.15 K, x1 = 0.4988 | 1290.53 | 18.01
298.15 K, x1 = 0.5962 | 1323.53 | 23.23
298.15 K, x1 = 0.6997 | 1351.73 | 29.87
298.15 K, x1 = 0.7931 | 1372.97 | 37.15
298.15 K, x1 = 0.9014 | 1393.86 | 46.91
298.15 K, x1 = 1 | 1410.03 | 58.86
303.15 K, x1 = 0.1024 | 988.5 | 3.38
303.15 K, x1 = 0.2019 | 1105.48 | 5.362
303.15 K, x1 = 0.2973 | 1182.67 | 7.898
303.15 K, x1 = 0.4011 | 1243.16 | 11.48
303.15 K, x1 = 0.4988 | 1285.7 | 15.21
303.15 K, x1 = 0.5962 | 1318.7 | 19.43
303.15 K, x1 = 0.6997 | 1346.89 | 24.76
303.15 K, x1 = 0.7931 | 1368.14 | 30.48
303.15 K, x1 = 0.9014 | 1389.02 | 38.17
303.15 K, x1 = 1 | 1405.19 | 47.27
308.15 K, x1 = 0.1024 | 984.03 | 2.972
308.15 K, x1 = 0.2019 | 1100.81 | 4.667
308.15 K, x1 = 0.2973 | 1177.93 | 6.831
308.15 K, x1 = 0.4011 | 1238.35 | 9.85
308.15 K, x1 = 0.4988 | 1280.88 | 12.98
308.15 K, x1 = 0.5962 | 1313.87 | 16.47
308.15 K, x1 = 0.6997 | 1342.09 | 20.85
308.15 K, x1 = 0.7931 | 1363.32 | 25.37
308.15 K, x1 = 0.9014 | 1384.21 | 31.53
308.15 K, x1 = 1 | 1400.38 | 38.71
313.15 K, x1 = 0.1024 | 979.55 | 2.63
313.15 K, x1 = 0.2019 | 1096.13 | 4.093
313.15 K, x1 = 0.2973 | 1173.18 | 5.966
313.15 K, x1 = 0.4011 | 1233.59 | 8.525
313.15 K, x1 = 0.4988 | 1276.07 | 11.21
313.15 K, x1 = 0.5962 | 1309.06 | 14.12
313.15 K, x1 = 0.6997 | 1337.29 | 17.73
313.15 K, x1 = 0.7931 | 1358.51 | 21.42
313.15 K, x1 = 0.9014 | 1379.42 | 26.43
313.15 K, x1 = 1 | 1395.59 | 32.2
318.15 K, x1 = 0.1024 | 975.03 | 2.34
318.15 K, x1 = 0.2019 | 1091.46 | 3.684
318.15 K, x1 = 0.2973 | 1168.42 | 5.248
318.15 K, x1 = 0.4011 | 1228.78 | 7.433
318.15 K, x1 = 0.4988 | 1271.27 | 9.743
318.15 K, x1 = 0.5962 | 1304.24 | 12.24
318.15 K, x1 = 0.6997 | 1332.49 | 15.26
318.15 K, x1 = 0.7931 | 1353.72 | 18.28
318.15 K, x1 = 0.9014 | 1374.63 | 22.43
318.15 K, x1 = 1 | 1390.8 | 27.09
323.15 K, x1 = 0.1024 | 970.48 | 2.094
323.15 K, x1 = 0.2019 | 1086.71 | 3.283
323.15 K, x1 = 0.2973 | 1163.66 | 4.64
323.15 K, x1 = 0.4011 | 1223.97 | 6.437
323.15 K, x1 = 0.4988 | 1266.46 | 8.553
323.15 K, x1 = 0.5962 | 1299.4 | 10.7
323.15 K, x1 = 0.6997 | 1327.7 | 13.27
323.15 K, x1 = 0.7931 | 1348.94 | 15.77
323.15 K, x1 = 0.9014 | 1369.87 | 19.26
323.15 K, x1 = 1 | 1386.03 | 23.14

From the NIST ThermoML archive (doi:10.1021/acs.jced.5b00259)
